Results: the NIST ThermoML archive (doi:10.1021/je500513b)

Assay: mn = molality of the nth substance listed, in mol/kg
Settings: for surface tension liquid-gas: Pendant drop shape; for electrical conductivity: 100 kPa, Liquid, Mettler Toledo inLab 710

CCCCCCCCCCCCCC[N+](C)(C)CCCC[N+](C)(C)CCCCCCCCCCCCCC.[Br-].[Br-] + O
Settings | electrical conductivity, 298.15 K [S/m] | electrical conductivity, 303.15 K [S/m] | electrical conductivity, 308.15 K [S/m] | electrical conductivity, 313.15 K [S/m] | electrical conductivity, 318.15 K [S/m] | electrical conductivity, 323.15 K [S/m] | surface tension liquid-gas, 298.15 K [mN/m]
m1 = 1e-05 | – | – | – | – | – | – | 58.66
m1 = 2e-05 | – | – | – | – | – | – | 56.16
m1 = 3e-05 | – | – | – | – | – | – | 51.87
m1 = 4e-05 | – | – | – | – | – | – | 50.69
m1 = 5e-05 | – | – | – | – | – | – | 49.28
m1 = 6e-05 | – | – | – | – | – | – | 47.86
m1 = 7e-05 | – | – | – | – | – | – | 45.48
m1 = 8e-05 | – | – | – | – | – | – | 44.02
m1 = 9e-05 | – | – | – | – | – | – | 43.09
m1 = 0.0001 | – | – | – | – | – | – | 42.13
m1 = 0.000111 | 0.00256 | – | 0.00315 | 0.00337 | – | 0.00418 | –
m1 = 0.000118 | 0.0027 | 0.00296 | 0.00332 | 0.00354 | 0.00387 | 0.00442 | –
m1 = 0.00012 | – | – | – | – | – | – | 39.63
m1 = 0.000125 | 0.00286 | 0.00313 | 0.00351 | 0.00375 | 0.00411 | 0.00465 | –
m1 = 0.000133 | 0.003 | 0.00333 | 0.00371 | 0.00401 | 0.00436 | 0.0049 | –
m1 = 0.00014 | – | – | – | – | – | – | 39.01
m1 = 0.000143 | 0.00321 | 0.00354 | 0.00392 | 0.00426 | 0.00463 | 0.00514 | –
m1 = 0.00015 | 0.00333 | 0.00365 | 0.00407 | 0.00448 | 0.00486 | 0.00538 | –
m1 = 0.000158 | 0.00344 | 0.00377 | 0.00423 | 0.00468 | 0.005 | 0.00563 | –
m1 = 0.000167 | 0.00354 | 0.00391 | 0.00442 | 0.00491 | 0.00524 | 0.00588 | –
m1 = 0.00017 | – | – | – | – | – | – | 38.87
m1 = 0.000176 | 0.00364 | 0.00405 | 0.00458 | 0.00514 | 0.00548 | 0.0062 | –
m1 = 0.000188 | 0.00373 | 0.00418 | 0.00475 | 0.0054 | 0.00576 | 0.00653 | –
m1 = 0.000197 | 0.00382 | 0.00427 | 0.00487 | 0.00557 | 0.00593 | 0.00682 | –
m1 = 0.0002 | – | – | – | – | – | – | 38.31
m1 = 0.000207 | 0.0039 | 0.00436 | 0.005 | 0.00574 | 0.00612 | 0.00712 | –
m1 = 0.000218 | 0.00399 | 0.00447 | 0.00514 | 0.00588 | 0.00632 | 0.00745 | –
m1 = 0.000231 | 0.00409 | 0.00457 | 0.00529 | 0.00606 | 0.00655 | 0.00772 | –
m1 = 0.00024 | 0.00416 | 0.00465 | 0.00539 | 0.00617 | 0.00667 | 0.00786 | –
m1 = 0.00025 | 0.00422 | 0.00473 | 0.00549 | 0.00628 | 0.0068 | 0.00805 | –
m1 = 0.000261 | 0.0043 | 0.00482 | 0.0056 | 0.00641 | 0.00694 | 0.00823 | –
m1 = 0.000273 | 0.00438 | 0.00489 | 0.00572 | 0.00652 | 0.00708 | 0.00839 | –
m1 = 0.000286 | 0.00448 | 0.00499 | 0.00584 | 0.00667 | 0.00724 | 0.00858 | –
m1 = 0.0003 | 0.00459 | 0.00512 | 0.00597 | 0.00681 | 0.0074 | 0.00877 | 37.21

O [water] + CCCCCCCCCCCC[N+](C)(C)CCC[N+](C)(C)CCCCCCCCCCCC.[Br-].[Br-]
Settings | surface tension liquid-gas [mN/m]
298.15 K, m2 = 0 | 71.98
